Measured values published in ChEMBL document CHEMBL4138057, “Structure-guided optimization of quinoline inhibitors of Plasmodium N-myristoyltransferase” (Medchemcomm, 2017).

Biological target: T1, Glycylpeptide N-tetradecanoyltransferase (Plasmodium falciparum (isolate 3D7), UniProt Q8ILW6)
T1 sequence (Q8ILW6 whole entry): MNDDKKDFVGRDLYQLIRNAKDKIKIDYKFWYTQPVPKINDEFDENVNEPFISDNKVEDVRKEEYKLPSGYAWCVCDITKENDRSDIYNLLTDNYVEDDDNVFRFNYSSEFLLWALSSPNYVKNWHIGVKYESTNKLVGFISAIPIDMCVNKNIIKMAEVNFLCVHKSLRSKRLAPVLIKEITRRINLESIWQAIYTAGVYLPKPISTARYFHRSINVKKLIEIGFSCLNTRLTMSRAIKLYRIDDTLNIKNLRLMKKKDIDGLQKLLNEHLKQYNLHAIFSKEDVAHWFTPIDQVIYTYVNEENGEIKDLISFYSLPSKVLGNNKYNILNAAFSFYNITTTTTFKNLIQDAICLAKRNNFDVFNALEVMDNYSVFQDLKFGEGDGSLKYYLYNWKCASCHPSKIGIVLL
Assay: Inhibition of Plasmodium falciparum NMT preincubated for 10 to 20 mins followed by Hs pp60src (2 to 16 residues) substrate addition measured after 60 mins by CPM-based fluorescence assay
Details: read-out: Ki(app)

Ki [µM] | Structure (SMILES)
> 10 | CCOC(=O)c1cnc2ccc(OCc3ccccc3)cc2c1SCCC#N
> 10 | CCOC(=O)c1cnc2ccc(OCc3ccccc3)cc2c1S(=O)(=O)CC
> 10 | CCSc1c(CO)cnc2ccc(OCc3ccccc3)cc12
